This passage reports IC50 results from patent US8420657B2 (Novartis AG, priority 2008, dated 2013).

Where only a bound is given, the exact number is not on record here.

The assay deals with T1, GST-JAK2(808-1132) (Homo sapiens, UniProt O60674).
T1 construct: GST-JAK2(808-1132); purchased Invitrogen (Carlsbad, USA) #4288
T1 sequence (O60674 808-1132): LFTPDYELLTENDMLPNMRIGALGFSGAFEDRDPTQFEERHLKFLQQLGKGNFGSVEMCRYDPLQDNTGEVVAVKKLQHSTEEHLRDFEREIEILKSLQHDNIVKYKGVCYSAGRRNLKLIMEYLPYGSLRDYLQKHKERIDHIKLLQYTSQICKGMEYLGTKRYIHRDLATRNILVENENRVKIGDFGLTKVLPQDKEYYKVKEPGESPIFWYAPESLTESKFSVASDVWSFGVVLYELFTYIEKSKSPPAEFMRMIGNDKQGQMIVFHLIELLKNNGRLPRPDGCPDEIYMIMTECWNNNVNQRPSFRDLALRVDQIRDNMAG
The experiment in a line: JAK2 kinase assay (Caliper mobility shift, LabChip 3000). The format is biochemical. The text has this: All four kinases of the JAK/TYK-kinase family were used as purified recombinant GST-fusion proteins, containing the active kinase domains. GST-JAK1 (866-1154), GST-JAK3(811-1124), and GST-TYK2(888-1187) were expressed and purified by affinity chromatography at the EPK biology unit. GST-JAK2(808-1132) was purchased from Invitrogen (Carlsbad, USA, #4288).
The kinase assays were based on the Caliper mobility shift assay using the LabChip 3000 systems. This technology is similar to capillary electrophoresis and uses charge driven separation of substrate and product in a microfluidic chip.
All kinase reactions were performed in 384 well microtiter plates in a total reaction volume of 18 μl. The assay plates were prepared with 0.1 μl per well of test compound in the appropriate test concentration, as described under the section “preparation of compound dilutions”. The reactions were started by combining 9 μl of substrate mix (consisting of peptide and ATP) with 9 μl of kinase dilution. The reactions were incubated for 60 minutes at 30° C. and stopped by adding 70 μl of stop buffer (100 mM Hepes, 5% DMSO, 0.1% Coating reagent, 10 mM EDTA, 0.015% Brij 35).
Fluorescently labeled synthetic peptides were used as substrates in all reactions. A peptide derived from the sequence of IRS-1(IRS-1 peptide, SEQ ID NO: 1 FITC-Ahx-KKSRGDYMTMQIG-NH2) was used for JAK1 and TYK2 and a peptide named JAK3tide SEQ ID NO: 2 (FITC-GGEEEEYFELVKKKK-NH2) for JAK2 and JAK3. Specific assay conditions are described in Table1:
The terminated reactions were transferred to the Caliper LabChip 3000 reader and the turnover of each reaction was measured by determining the substrate/product ratio.
Test compounds were dissolved in DMSO (10 mM) and transferred into 1.4 mL flat bottom or V-shaped Matrix tubes carrying a unique 2D matrix chip by individual compound hubs. The numbers of these chips were distinctively linked to the individual compound identification numbers. The stock solutions were stored at −20° C. if not used immediately. For the test procedure the vials were defrosted and identified by a scanner whereby a working sheet was generated that guided the subsequent working steps. Compound dilutions were made in 96 well plates. This format enabled the assay of maximally 40 individual test compounds at 8 concentrations (single points) including 4 reference compounds. The dilution protocol included the production of pre-dilution plates, master plates and assay plates:
Pre-dilution plates: 96 polypropylene well plates were used as pre-dilution plates. A total of 4 pre-dilution plates were prepared including 10 test compounds each on the plate positions A1-A10, one standard compound at A11 and one DMSO control at A12. All dilution steps were done on a HamiltonSTAR robot.
Master plates: 100 μL of individual compound dilutions including standard compound and controls of the 4 “pre-dilution plates” were transferred into a 384 “master plate” including the following concentrations 1,820, […], 182, 54.6, 18.2, 5.46, 1.82 and 0.546 μM, respectively in 90% of DMSO.
Assay plates: Identical assay plates were then prepared by pipetting 100 nL each of compound dilutions of the master plates into 384-well “assay plates”. In the following the compounds were mixed with 9 μL of assays components plus 9 μL enzyme corresponding to a 1:181 dilution steps enabling the final concentration of 10, 3.0, 1.0, 0.3, 0.1, 0.03, 0.01 and 0.003 μM, respectively. The preparation of the master plates were handled by the Matrix PlateMate Plus robot and replication of assay plates by the HummingBird robot.
For the compound `CCN(CC)CCOc1ccc(Nc2ncc3ccn(-c4ccc(S(C)(=O)=O)cc4)c3n2)cc1` [Example 33, [4-(2-Diethylamino-ethoxy)-phenyl]-[7-(4-methanesulfonyl-phenyl)-7H-pyrrolo[2,3-d]pyrimidin-2-yl]-amine], the IC50 (as a rule, the concentration needed to halve the response being measured) is under 3 nM.

On to `CC(C)(C)OC(=O)N1CCN(C(=O)c2ccc(Nc3ncc4ccn(-c5ccc(S(C)(=O)=O)cc5)c4n3)cc2)CC1` [Example 69, 4-{4-[7-(4-Methanesulfonyl-phenyl)-7H-pyrrolo[2,3-d]pyrimidin-2-ylamino]-benzoyl}-piperazine-1-carboxylic acid tert-butyl ester], for which the IC50 is 4.8 nM.

In the case of `Cc1ccc(Nc2ncc3ccn(-c4ccc(C(=O)N5CCOCC5)c(F)c4)c3n2)nc1C` [Example 222, {4-[2-(5,6-Dimethyl-pyridin-2-ylamino)-pyrrolo[2,3-d]pyrimidin-7-yl]-2-fluoro-phenyl}-morpholin-4-yl-methanone], the IC50 stood at 290 nM.

With `COc1ccc(Nc2ncc3ccn(-c4ccc(S(C)(=O)=O)cc4)c3n2)cc1OC` [Example 5, (3,4-Dimethoxy-phenyl)-[7-(4-methanesulfonyl-phenyl)-7H-pyrrolo[2,3-d]pyrimidin-2-yl]-amine], the IC50 was under 3 nM.

With `CCN1CCN(c2ccc(Nc3ncc4ccn(-c5ccc(CC(=O)N6CCN(C)CC6)cc5)c4n3)cc2C)CC1` [Example 284, 2-(4-{2-[4-(4-Ethyl-piperazin-1-yl)-3-methyl-phenylamino]-pyrrolo[2,3-d]pyrimidin-7-yl}-phenyl)-1-(4-methyl-piperazin-1-yl)-ethanone], the IC50 came out at 3.7 nM.

Take `Cc1ccc(Nc2ncc3ccn(-c4ccc(C(=O)N5CCOCC5)cc4)c3n2)cc1CN1CCN(C)CC1` [Example 437, (4-{2-[4-Methyl-3-(4-methyl-piperazin-1-ylmethyl)-phenylamino]-pyrrolo[2,3-d]pyrimidin-7-yl}-phenyl)-morpholin-4-yl-methanone]: the concentration for half-maximal inhibition (IC50) came to 3.3 nM.

`O=C(c1c(F)cc(-n2ccc3cnc(Nc4ccc(CN5CCNCC5)cc4)nc32)cc1F)N1CCOCC1` [Example 314, {2,6-Difluoro-4-[2-(4-piperazin-1-ylmethyl-phenylamino)-pyrrolo[2,3-d]pyrimidin-7-yl]-phenyl}-morpholin-4-yl-methanone]: the IC50 is under 3 nM.

Turning to `CN1CCN(c2ccc(Nc3ncc4ccn(-c5ccc(C(O)C6CC6)cc5)c4n3)cn2)CC1` (stereo not drawn) [Example 277, Cyclopropyl-(4-{2-[6-(4-methyl-piperazin-1-yl)-pyridin-3-ylamino]-pyrrolo[2,3-d]pyrimidin-7-yl}-phenyl)-methanol], the IC50 was found to be 8.3 nM.

Regarding `CN1CCN(Cc2ccc(Nc3ncc4ccn(-c5cc(F)c(CN6CCOCC6)c(F)c5)c4n3)cc2C(F)(F)F)CC1` [Example 200, [7-(3,5-Difluoro-4-morpholin-4-ylmethyl-phenyl)-7H-pyrrolo[2,3-d]pyrimidin-2-yl]-[4-(4-methyl-piperazin-1-ylmethyl)-3-trifluoromethyl-phenyl]-amine], the IC50 is 3.7 nM.

As to `CN1CCN(c2ccc(Nc3ncc4ccn(-c5ccc(S(N)(=O)=O)cc5)c4n3)cc2)CC1` [Example 349, 4-{2-[4-(4-Methyl-piperazin-1-yl)-phenylamino]-pyrrolo[2,3-d]pyrimidin-7-yl}-benzenesulfonamide], the IC50 was 16 nM.

For `CN1CCN(c2cccc(Nc3ncc4ccn(-c5cc(F)c(C(=O)N6CCOCC6)c(F)c5)c4n3)c2)CC1` [Example 207, (2,6-Difluoro-4-{2-[3-(4-methyl-piperazin-1-yl)-phenylamino]-pyrrolo[2,3-d]pyrimidin-7-yl}-phenyl)-morpholin-4-yl-methanone], the IC50 is under 3 nM.

As for `CN1CCN(C(=O)c2ccc(Nc3ncc4ccn(-c5ccc(S(C)(=O)=O)cc5)c4n3)cc2)CC1` [Example 28, {4-[7-(4-Methanesulfonyl-phenyl)-7H-pyrrolo[2,3-d]pyrimidin-2-ylamino]-phenyl}-(4-methyl-piperazin-1-yl)-methanone], the IC50 is 4 nM.

On to `CC(=O)N1CCN(Cc2ccc(Nc3ncc4ccn(-c5ccc(C(=O)N6CCOCC6)c(F)c5)c4n3)cc2)CC1` [Example 322, 1-[4-(4-{7-[3-Fluoro-4-(morpholine-4-carbonyl)-phenyl]-7H-pyrrolo[2,3-d]pyrimidin-2-ylamino}-benzyl)-piperazin-1-yl]-ethanone], for which the IC50 was under 3 nM.

Turning to `COc1cc(Nc2ncc3ccn(-c4ccc(C(=O)NC(C)(C)C)cc4)c3n2)cc(OC)c1OC` [Example 9, N-tert-Butyl-4-[2-(3,4,5-trimethoxy-phenylamino)-pyrrolo[2,3-d]pyrimidin-7-yl]-benzamide], the IC50 was under 3 nM.

Regarding `Cc1ccc(Nc2ncc3ccn(-c4cc(F)c(CN5CCOCC5)c(F)c4)c3n2)cc1CN1CCNC2(CC2)C1` [Example 373, [3-(4,7-Diaza-spiro[2.5]oct-7-ylmethyl)-4-methyl-phenyl]-[7-(3,5-difluoro-4-morpholin-4-ylmethyl-phenyl)-7H-pyrrolo[2,3-d]pyrimidin-2-yl]-amine], the IC50 was determined as 4.3 nM.

Consider `CN(C)c1ccc(Nc2ncc3ccn(-c4ccc(S(C)(=O)=O)cc4)c3n2)cc1` [Example 21, N-[7-(4-Methanesulfonyl-phenyl)-7H-pyrrolo[2,3-d]pyrimidin-2-yl]-N′,N′-dimethyl-benzene-1,4-diamine], for which the IC50 was determined as 23 nM.

`CS(=O)(=O)c1ccc(-n2ccc3cnc(Nc4ccc(F)cc4)nc32)cc1` [Example 55, (4-Fluoro-phenyl)-[7-(4-methanesulfonyl-phenyl)-7H-pyrrolo[2,3-d]pyrimidin-2-yl]-amine]: the IC50 is 20 nM.

Take `CS(=O)(=O)c1ccc(-n2ccc3cnc(Nc4ccc(C(=O)NCCO)cc4)nc32)cc1` [Example 51, N-(2-Hydroxy-ethyl)-4-[7-(4-methanesulfonyl-phenyl)-7H-pyrrolo[2,3-d]pyrimidin-2-ylamino]-benzamide]: the IC50 is under 3 nM.

Consider `O=C(c1c(F)cc(-n2ccc3cnc(Nc4ccc(CN5CCOCC5)cc4)nc32)cc1F)N1CCOCC1` [Example 206, {2,6-Difluoro-4-[2-(4-morpholin-4-ylmethyl-phenylamino)-pyrrolo[2,3-d]pyrimidin-7-yl]-phenyl}-morpholin-4-yl-methanone], for which the half-inhibitory concentration (IC50) was under 3 nM.

Turning to `O=C(c1ccc(-n2ccc3cnc(Nc4ccc(CN5CCN(C6CC6)CC5)cc4)nc32)cc1F)N1CCOCC1` [Example 330, (4-{2-[4-(4-Cyclopropyl-piperazin-1-ylmethyl)-phenylamino]-pyrrolo[2,3-d]pyrimidin-7-yl}-2-fluoro-phenyl)-morpholin-4-yl-methanone], the IC50 worked out at 14 nM.

For the compound `CN1CCN(c2ccc(Nc3ncc4ccn(-c5ccc(N6CCCC6=O)cc5)c4n3)cn2)CC1` [Example 283, 1-(4-{2-[6-(4-Methyl-piperazin-1-yl)-pyridin-3-ylamino]-pyrrolo[2,3-d]pyrimidin-7-yl}-phenyl)-pyrrolidin-2-one], the IC50 came to 23 nM.

Turning to `OC1CCN(Cc2cc(Nc3ncc4ccn(-c5cc(F)c(CN6CCOCC6)c(F)c5)c4n3)ccn2)C1` (racemic) [Example 416, 1-{4-[7-(3,5-Difluoro-4-morpholin-4-ylmethyl-phenyl)-7H-pyrrolo[2,3-d]pyrimidin-2-ylamino]-pyridin-2-ylmethyl}-pyrrolidin-3-ol], the IC50 was at most 3 nM.

Regarding `Fc1cc(-n2ccc3cnc(Nc4ccc(CN5CCNCC5)cc4)nc32)cc(F)c1CN1CCOCC1` [Example 315, [7-(3,5-Difluoro-4-morpholin-4-ylmethyl-phenyl)-7H-pyrrolo[2,3-d]pyrimidin-2-yl]-(4-piperazin-1-ylmethyl-phenyl)-amine], the IC50 was under 3 nM.

Regarding `O=C(c1ccc(-n2ccc3cnc(Nc4ccc(C(F)(F)F)nc4)nc32)cc1F)N1CCOCC1` [Example 227, {2-Fluoro-4-[2-(6-trifluoromethyl-pyridin-3-ylamino)-pyrrolo[2,3-d]pyrimidin-7-yl]-phenyl}-morpholin-4-yl-methanone], the IC50 was found to be 41.5 nM.
